Converted amounts (≈) assume the structure as drawn. “And” between values parts separate entries of the source, which are not always exact repeats. Identical values can stand only once. Like-named read-outs stand apart in the source and are kept apart here.
Key:
murine PDXP/PGP hybrid = target: T1, murine PDXP/PGP hybrid (Mus musculus, UniProt P60487+Q8CHP8); assay: PG dephosphorylation by PDXP/PGP hybrid protein; format: biochemical
T1 construct: consisting of the PGP cap domain (amino acids 114–233) fused to the PDXP core domain; His6 (N, cleaved yes); made in house; host or cells: Escherichia coli BL21 (DE3), pETM11
T1 sequence (P60487 1-100): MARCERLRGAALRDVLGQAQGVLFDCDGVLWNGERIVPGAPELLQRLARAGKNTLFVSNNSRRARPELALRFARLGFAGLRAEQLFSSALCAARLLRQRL
T1 sequence (Q8CHP8 114-233): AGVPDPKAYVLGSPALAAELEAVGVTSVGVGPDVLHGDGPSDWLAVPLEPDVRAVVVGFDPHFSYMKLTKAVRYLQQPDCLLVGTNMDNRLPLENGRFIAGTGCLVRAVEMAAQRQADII
T1 sequence (P60487 208-292): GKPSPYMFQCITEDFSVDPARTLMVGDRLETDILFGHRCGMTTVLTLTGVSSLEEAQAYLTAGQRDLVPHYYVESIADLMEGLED
Protocol: After centrifugation, cells were resuspended in TNM-2 (100 mM triethanolamine, 500 mM NaCl, 20 mM imidazole, 5 mM MgCl2; pH 7.4). Cleared supernatants were loaded on a HisTrap HP nickel sepharose column in TNM-3 (50 mM triethanolamine, 500 mM NaCl, 20 mM imidazole, 5 mM MgCl2; pH 7.4), and His6-tagged proteins were eluted using a linear gradient of up to 50% TNM-4 (50 mM triethanolamine; 250 mM NaCl; 500 mM imidazole; 5 mM MgCl2; pH 7.4). Peak fractions were pooled, the His6-tag was cleaved, and untagged PDXP or PDXP/PGP was isolated, concentrated and further purified by size exclusion chromatography in TNM-5 (50 mM triethanolamine; 250 mM NaCl; 5 mM MgCl2; pH 7.4). […] Data were analyzed with GraphPad Prism 7.04.

murine PGP-WT = target: T2, murine PGP-WT (Mus musculus, UniProt Q8CHP8); assay: Isothermal titration calorimetry, PGP-WT; format: binding; conditions: ITC; for Kd: murine PGP
T2 construct: His6 (N, cleaved yes); made in house; host or cells: Escherichia coli BL21 (DE3), pETM11, co-expressed with groES-groEL-tig
T2 sequence (Q8CHP8 1-321): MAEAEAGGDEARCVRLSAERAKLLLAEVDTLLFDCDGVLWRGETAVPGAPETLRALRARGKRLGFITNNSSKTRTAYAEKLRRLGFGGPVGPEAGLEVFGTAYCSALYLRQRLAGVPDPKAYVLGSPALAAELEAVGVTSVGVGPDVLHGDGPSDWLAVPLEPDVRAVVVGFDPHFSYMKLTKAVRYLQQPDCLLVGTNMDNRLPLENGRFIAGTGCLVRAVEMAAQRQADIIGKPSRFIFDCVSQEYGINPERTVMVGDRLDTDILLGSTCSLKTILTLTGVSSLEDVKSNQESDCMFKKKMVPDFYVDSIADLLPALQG
Protocol: Purified murine PGP-WT or PGP-P127E was dialyzed overnight against ITC buffer (30 mM HEPES, 30 mM NaCl, 5 mM MgCl2, 1 mM tris(2-carboxyethyl)phosphine/TCEP; pH 7.5). All calorimetric measurements were performed at 25 °C on an ITC200 microcalorimeter (GE Healthcare). Experiments were conducted with a fixed concentration of 2% DMSO. […] To reduce the effects of ligand leakage from the syringe during baseline equilibration, the heat release of a single 1.2 μL injection was recorded prior to the actual titration experiment, and discarded during data analysis with Nitpic 2.0.7[45]. To determine background heats of dilution, control experiments of ligand into buffer, buffer into protein and buffer into buffer titrations were performed.

PGP^WT = target: T3, PGP^WT (Mus musculus, UniProt Q8CHP8); assay: Differential scanning fluorimetry (Thermofluor); format: binding
T3 construct: His6 (N, cleaved yes); made in house; host or cells: Escherichia coli BL21 (DE3), pETM11, co-expressed with groES-groEL-tig
T3 sequence (Q8CHP8 1-321): T2 sequence (Q8CHP8 1-321)

physchem = conditions: organic solvent or mixture
murine PGP [1] = target: T4, murine PGP (Mus musculus, UniProt Q8CHP8); assay: biochemical
T4 sequence (Q8CHP8 1-321): T2 sequence (Q8CHP8 1-321)

murine PDXP = target: T5, murine PDXP (Mus musculus, UniProt P60487); assay: PDXP activity towards pyridoxal 5'-phosphate (PLP); conditions: phosphatase PDXP; species M.m.; substrate PLP; n.s. = no significant inhibition detectable
T5 sequence (P60487 1-292): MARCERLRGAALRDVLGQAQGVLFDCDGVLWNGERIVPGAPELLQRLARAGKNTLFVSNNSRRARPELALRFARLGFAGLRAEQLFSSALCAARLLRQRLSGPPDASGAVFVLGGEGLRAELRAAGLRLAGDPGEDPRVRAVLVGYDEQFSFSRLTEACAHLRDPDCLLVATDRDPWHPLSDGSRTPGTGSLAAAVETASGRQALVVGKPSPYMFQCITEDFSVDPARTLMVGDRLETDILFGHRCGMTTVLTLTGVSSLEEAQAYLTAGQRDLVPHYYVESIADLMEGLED

murine PGP [2] = target: T4, murine PGP; assay: IC50 determination, murine PGP, pNPP dephosphorylation
PGP = target: T6, PGP (Mus musculus, UniProt Q8CHP8); assay: Steady state kinetics of PG dephosphorylation in presence of CP1-3
T6 sequence (Q8CHP8 1-321): T2 sequence (Q8CHP8 1-321)

[3] = PG dephosphorylation, increasing CP concentrations

With `O=C(Nc1ccccc1C(=O)O)c1ccc(Oc2ccc(C(=O)Nc3ccccc3C(=O)O)cc2)cc1` [CP1] the remaining activity at 16 µM (murine PDXP/PGP hybrid; activity, control = 100, CP log[M] -4.79588) was 22%, the remaining activity at 4 µM (murine PDXP/PGP hybrid; activity, control = 100, CP log[M] -5.39794) was 59.9% and the remaining activity at 2 µM (murine PDXP/PGP hybrid; activity, control = 100, CP log[M] -5.69897) was 72%. For the same compound, the remaining activity at 1 µM (murine PDXP/PGP hybrid; activity, control = 100, CP log[M] -6) was 77.3%, the remaining activity at 0.5 µM (murine PDXP/PGP hybrid; activity, control = 100, CP log[M] -6.30103) was 82.6% and the remaining activity at […] (murine PDXP/PGP hybrid; activity, control = 100, CP log[M] -6.60206) was 92.4%. The remaining activity at 0.125 µM (murine PDXP/PGP hybrid; activity, control = 100, CP log[M] -6.90309) was 90.9%, the remaining activity at 0.0625 µM (murine PDXP/PGP hybrid; activity, control = 100, CP log[M] -7.20412) was 93.9% and the remaining activity at 0.015625 µM (murine PDXP/PGP hybrid; activity, control = 100, CP log[M] -7.80618) was 101%. The IC50 (murine PDXP/PGP hybrid; phosphatase PDXP/PGP, species M.m., substrate PG) was 13800 ± 1430 nM, the Kd (murine PGP-WT; 25 °C, mean ± S.E.M., n = 3) was 780 nM and the Kd (murine PGP-WT; single replicates) was 850 nM and 790 nM and 710 nM. For the same compound, the dG (murine PGP-WT; single replicates) was -8.282 kcal/mol and -8.325 kcal/mol and -8.393 kcal/mol, the dH (murine PGP-WT; single replicates) was -5.583 kcal/mol and -4.903 kcal/mol and -5.696 kcal/mol and the dS (murine PGP-WT; single replicates) was 9.052 cal/Mol*K and 11.478 cal/Mol*K and 9.044 cal/Mol*K. It also gave a TM (PGP^WT; Inhibitor 0.244141 µM) of 66.6 °C, a TM (PGP^WT; Inhibitor 0.488281 µM) of 66.6 °C and a TM (PGP^WT; Inhibitor 0.976562 µM) of 66.8 °C. For the same compound, the TM (PGP^WT; Inhibitor 1.95312 µM) was 67.0 °C, the TM (PGP^WT; Inhibitor 3.90625 µM) was 67.7 °C and the TM (PGP^WT; Inhibitor 7.8125 µM) was 68.6 °C. For the same compound, the TM (PGP^WT; Inhibitor 15.625 µM) was 69.6 °C, the TM (PGP^WT; Inhibitor 31.25 µM) was 70.5 °C and the TM (PGP^WT; Inhibitor 62.5 µM) was 71.0 °C. The TM (PGP^WT; Inhibitor 125 µM) was 71.0 °C, the TM (PGP^WT; Inhibitor 250 µM) was 70.1 °C and the “increase in the maximal PGP melting temperature” value (PGP^WT; from 66.4 °C (control conditions)) was 4.6 °. The solubility (physchem) was 100 mM (≈ 49.6 mg/mL), the IC50 (murine PGP [1]) was 370 nM and 400 nM and the IC50 (murine PDXP) was “n.s”. It also gave an IC50 (murine PGP [2]) of 770 ± 50 nM, a remaining activity at 25 µM (murine PGP [2]; read-out: M.m PGP on pNPP, activity, control = 100.00, CP log[M] -4.60206) of 3.52% and a remaining activity at 10 µM (murine PGP [2]; read-out: M.m PGP on pNPP, activity, control = 100.00, CP log[M] -5) of 6.83%. It also gave a remaining activity at […] (murine PGP [2]; read-out: M.m PGP on pNPP, activity, control = 100.00, CP log[M] -5.60206) of 23.4%, a remaining activity at 1 µM (murine PGP [2]; read-out: M.m PGP on pNPP, activity, control = 100.00, CP log[M] -6) of 47.8% and a remaining activity at 0.5 µM (murine PGP [2]; read-out: M.m PGP on pNPP, activity, control = 100.00, CP log[M] -6.30103) of 65%. The remaining activity at […] (murine PGP [2]; read-out: M.m PGP on pNPP, activity, control = 100.00, CP log[M] -6.60206) was 85%, the remaining activity at 0.125 µM (murine PGP [2]; read-out: M.m PGP on pNPP, activity, control = 100.00, CP log[M] -6.90309) was 91.3% and the remaining activity at 0.0625 µM (murine PGP [2]; read-out: M.m PGP on pNPP, activity, control = 100.00, CP log[M] -7.20412) was 99.4%. For the same compound, the remaining activity at 0.03125 µM (murine PGP [2]; read-out: M.m PGP on pNPP, activity, control = 100.00, CP log[M] -7.50515) was 100%, the “mode of PGP inhibition” value (PGP) was “mixed mode of inhibition” and the PGP activity (PGP; 0,5 µM CP1, PG 50 µM) was 1.261 µmol Pi/min/mg and 1.442 µmol Pi/min/mg. The PGP activity (PGP; 0,5 µM CP1, PG 100 µM) was 3.424 µmol Pi/min/mg and 4.325 µmol Pi/min/mg and 3.784 µmol Pi/min/mg, the PGP activity (PGP; 0,5 µM CP1, PG 200 µM) was 7.208 µmol Pi/min/mg and 7.809 µmol Pi/min/mg and 7.689 µmol Pi/min/mg and the PGP activity (PGP; 0,5 µM CP1, PG 300 µM) was 11.5358 µmol Pi/min/mg and 12.2568 µmol Pi/min/mg and 11.716 µmol Pi/min/mg. The PGP activity (PGP; 0,5 µM CP1, PG 400 µM) was 14.0592 µmol Pi/min/mg and 13.5185 µmol Pi/min/mg, the PGP activity (PGP; 0,5 µM CP1, PG 500 µM) was 16.5827 µmol Pi/min/mg and 16.763 µmol Pi/min/mg and 16.2222 µmol Pi/min/mg and the PGP activity (PGP; 0,5 µM CP1, PG 600 µM) was 17.6642 µmol Pi/min/mg and 17.3037 µmol Pi/min/mg and 17.4839 µmol Pi/min/mg. For the same compound, the PGP activity (PGP; 0,5 µM CP1, PG 700 µM) was 19.4667 µmol Pi/min/mg and 20.1876 µmol Pi/min/mg and 19.2864 µmol Pi/min/mg, the PGP activity (PGP; 0,5 µM CP1, PG 800 µM) was 18.0247 µmol Pi/min/mg and 18.9259 µmol Pi/min/mg and 20.0074 µmol Pi/min/mg and the PGP activity (PGP; 1 µM CP1, PG 50 µM) was 1.382 µmol Pi/min/mg and 0.901 µmol Pi/min/mg and 0.7809 µmol Pi/min/mg. The PGP activity (PGP; 1 µM CP1, PG 100 µM) was 2.763 µmol Pi/min/mg and 2.222 µmol Pi/min/mg and 2.403 µmol Pi/min/mg, the PGP activity (PGP; 1 µM CP1, PG 200 µM) was 4.805 µmol Pi/min/mg and 4.745 µmol Pi/min/mg and 4.625 µmol Pi/min/mg and the PGP activity (PGP; 1 µM CP1, PG 300 µM) was 7.751 µmol Pi/min/mg and 7.57 µmol Pi/min/mg and 7.39 µmol Pi/min/mg. For the same compound, the PGP activity (PGP; 1 µM CP1, PG 400 µM) was 9.373 µmol Pi/min/mg and 8.4716 µmol Pi/min/mg and 9.012 µmol Pi/min/mg, the PGP activity (PGP; 1 µM CP1, PG 500 µM) was 11.1753 µmol Pi/min/mg and 10.6346 µmol Pi/min/mg and 10.9951 µmol Pi/min/mg and the PGP activity (PGP; 1 µM CP1, PG 600 µM) was 12.437 µmol Pi/min/mg and 11.8963 µmol Pi/min/mg and 13.158 µmol Pi/min/mg. For the same compound, the PGP activity (PGP; 1 µM CP1, PG 700 µM) was 13.879 µmol Pi/min/mg and 12.7975 µmol Pi/min/mg, the PGP activity (PGP; 1 µM CP1, PG 800 µM) was 14.0592 µmol Pi/min/mg and 13.6988 µmol Pi/min/mg and 12.9778 µmol Pi/min/mg and the PGP activity (PGP; 2 µM CP1, PG 50 µM) was 0.6007 µmol Pi/min/mg and 1.021 µmol Pi/min/mg and 0.5406 µmol Pi/min/mg. For the same compound, the PGP activity (PGP; 2 µM CP1, PG 100 µM) was 1.562 µmol Pi/min/mg and 1.862 µmol Pi/min/mg and 1.201 µmol Pi/min/mg, the PGP activity (PGP; 2 µM CP1, PG 200 µM) was 2.703 µmol Pi/min/mg and 2.643 µmol Pi/min/mg and the PGP activity (PGP; 2 µM CP1, PG 300 µM) was 4.867 µmol Pi/min/mg and 5.227 µmol Pi/min/mg and 5.588 µmol Pi/min/mg. For the same compound, the PGP activity (PGP; 2 µM CP1, PG 400 µM) was 6.309 µmol Pi/min/mg and 6.128 µmol Pi/min/mg and 5.948 µmol Pi/min/mg, the PGP activity (PGP; 2 µM CP1, PG 500 µM) was 7.57 µmol Pi/min/mg and 7.03 µmol Pi/min/mg and 7.21 µmol Pi/min/mg and the PGP activity (PGP; 2 µM CP1, PG 600 µM) was 7.751 µmol Pi/min/mg and 7.931 µmol Pi/min/mg. The PGP activity (PGP; 2 µM CP1, PG 700 µM) was 7.57 µmol Pi/min/mg and 9.012 µmol Pi/min/mg and 8.291 µmol Pi/min/mg, the PGP activity (PGP; 2 µM CP1, PG 800 µM) was 6.849 µmol Pi/min/mg and 8.4716 µmol Pi/min/mg and 8.291 µmol Pi/min/mg and the vmax (PGP; CP 0.5 µM) was 39.9 ± 2.9 µmol/min/mg. The vmax (PGP; CP 1.0 µM) was 33.6 ± 3.0 µmol/min/mg, the vmax (PGP; CP 2.0 µM) was 17.1 ± 2.1 µmol/min/mg and the “effect on vmax (reduction)” value (PGP; [3]) was ~ 3 fold. The “increase of KM” value (PGP; [3]) was ~ 3 fold.
